Data: the supplement of paper PMC10307832

Key:
Assay in all cases: relative viability (nuclei count vs DMSO), 5 days (fraction); higher = more cells survive
Decitabine + Lapatinib = compound: Nc1ncn([C@H]2C[C@H](O)[C@@H](CO)O2)c(=O)n1 [Decitabine] + CS(=O)(=O)CCNCc1ccc(-c2ccc3ncnc(Nc4ccc(OCc5cccc(F)c5)c(Cl)c4)c3c2)o1 [Lapatinib] (partner 2 µM)
Method in brief: (§1)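 Lung cancer cell lines, seeded in 1536-well plates, were treated the following day by pin tool with a single drug or with five library-drug doses (not always all listed) in √10 steps on top of a fixed anchor-drug dose. Cells were fixed and nuclei stained in one step after 5 days, and nuclei were counted. Relative viability is the nuclei count for treated wells divided by that for vehicle wells, reported as medians of duplicate plates.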

[1] = compound: O=C(C[C@H]1NCCC[C@@H]1O)Cn1cnc2cc(Br)c(Cl)cc2c1=O (racemic) [Halofuginone] + C[C@]1(O)C[C@@H](c2nc(-c3ccc4ccc(-c5ccccc5)nc4c3)c3c(N)nccn32)C1 [Linsitinib] (partner 1 µM)
Method in brief: as §1

Cediranib + Alpelisib = compound: COc1cc2c(Oc3ccc4[nH]c(C)cc4c3F)ncnc2cc1OCCCN1CCCC1 [Cediranib] + Cc1nc(NC(=O)N2CCC[C@H]2C(N)=O)sc1-c1ccnc(C(C)(C)C(F)(F)F)c1 [Alpelisib] (partner 2 µM)
Method in brief: as §1

Cediranib + Phenformin = compound: COc1cc2c(Oc3ccc4[nH]c(C)cc4c3F)ncnc2cc1OCCCN1CCCC1 [Cediranib] + N=C(N)NC(=N)NCCc1ccccc1 [Phenformin] (partner 250 µM)
Method in brief: as §1

Cell Line	relative viability (Decitabine + Lapatinib; first compound 0.04 µM)	relative viability (Decitabine + Lapatinib; first compound 0.1265 µM)	relative viability (Decitabine + Lapatinib; first compound 0.4 µM)	relative viability (Decitabine + Lapatinib; first compound 1.265 µM)	relative viability (Decitabine + Lapatinib; first compound 4 µM)	relative viability ([1]; first compound 0.001 µM)	relative viability ([1]; first compound 0.003162 µM)	relative viability ([1]; first compound 0.01 µM)	relative viability ([1]; first compound 0.03162 µM)	relative viability ([1]; first compound 0.1 µM)	relative viability (Cediranib + Alpelisib; first compound 0.04 µM)	relative viability (Cediranib + Alpelisib; first compound 0.1265 µM)	relative viability (Cediranib + Alpelisib; first compound 0.4 µM)	relative viability (Cediranib + Alpelisib; first compound 1.265 µM)	relative viability (Cediranib + Alpelisib; first compound 4 µM)	relative viability (Cediranib + Phenformin; first compound 0.4 µM)	relative viability (Cediranib + Phenformin; first compound 1.265 µM)	relative viability (Cediranib + Phenformin; first compound 4 µM)	relative viability (Cediranib + Phenformin; first compound 0.04 µM)	relative viability (Cediranib + Phenformin; first compound 0.1265 µM)
NCI-H727	0.709	0.659	0.483	0.447	0.433	0.324	0.427	0.415	0.243	0.132	0.452	0.59	0.55	0.624	0.551	0.483	0.528	0.533	–	–
NCI-H358	0.468	0.512	0.388	0.284	0.334	0.779	0.707	0.629	0.273	0.19	1.04	1.05	0.745	0.996	0.926	0.299	0.222	0.358	0.336	0.41
NCI-H1437	0.505	0.582	0.274	0.235	0.221	1.05	1.13	0.988	0.828	0.208	1.02	1.03	0.971	0.954	1.12	0.332	0.363	0.369	0.317	0.285
NCI-H441	–	–	–	–	–	0.6	0.651	0.525	0.561	0.353	0.629	0.69	–	0.638	0.781	0.802	0.763	0.991	0.658	–
EMC-BAC-2	0.926	0.989	0.556	0.67	0.586	0.813	0.872	0.798	0.785	0.641	0.788	0.796	0.707	0.728	0.801	0.535	0.484	0.436	0.507	0.583
NCI-H647	0.756	0.77	0.537	0.271	0.194	1.35	1.06	1.03	0.665	0.173	1.35	1.3	1.02	0.876	1.21	0.47	0.605	0.441	0.513	0.504
CAL-12T	0.607	0.698	0.264	0.504	0.375	0.842	0.838	0.659	0.866	0.649	1.38	1.13	1.05	1.26	1.13	0.597	0.627	0.648	0.618	0.641
NCI-H1792	0.851	0.94	0.806	0.564	0.53	0.602	0.501	0.642	0.569	0.523	0.762	0.939	0.648	0.718	0.589	0.197	0.322	0.284	0.237	0.41
